These results are taken from US20250214990A1, “DIACYLGLYCEROL KINASE (DGK) ALPHA INHIBITORS AND USES THEREOF” (Insilico Medicine IP Limited, priority 2022, published 2025).

Series [1] in a line: Mouse PK profile after oral administration. The class given is in vivo, Male CD-1 mice. To be noted: for AUC(0-inf) / AUC(0-t) / Cmax / half-life: male, CD-1, plasma, mouse, oral, 5 mg/kg; for T1/2, Cmax and AUC compared with compound: mouse PK evaluation, comparison in words. The procedure:
Species and strain: Male CD-1 mice of SPF. Source: Sino-British SIPPR/BK Lab Animal Ltd, Shanghai. 3 mice were orally gavage administrated with given compounds (Formulation: 5% DMSO+10% Solutol+85% Saline). The blood samples were taken via cephalic vein at timepoints 0.25 h, 0.5 h, 1 h, 2 h, 4 h, 6 h, 8 h and 24 h after oral gavage administration, 30 μL/time point. Blood samples were placed in tubes containing K2-EDTA and stored on ice until centrifuged. The blood samples were centrifuged at 6800 g for 6 minutes at 2-8° C. within 1 h after collected and stored frozen at approximately −80° C. An aliquot of 10 μL plasma samples were protein precipitated with 200 μL MeOH in which contains 10 ng/mL Verapamil (IS). The mixture was vortexed for 1 min and centrifuged at 18000 g for 7 min. Transfer 180 μL supernatant to 96 well plates. An aliquot of 6 μL supernatant was injected for LC-MS/MS analysis by LC-MS/MS-04 (API4000) instrument. The analytical results were confirmed using quality control samples for intra-assay variation. The accuracy of >66.7% of the quality control samples should be between 80-120% of the known value(s). Standard set of parameters including Area Under the Curve (AUC(0-t) and AUC(0-∞)), elimination half-live (T½), maximum plasma concentration (Cmax), will be calculated using noncompartmental analysis modules in FDA certified pharmacokinetic program Phoenix WinNonlin 7.0 (Pharsight, USA).

Series [2] in a line: Rat PK profile after oral administration. The class given is in vivo, Male SD rats. To be noted: for AUC(0-inf) / AUC(0-t) / Cmax / half-life: male, SD, plasma, rat, oral, 5 mg/kg; for T1/2, Cmax and AUC compared with compound: rat PK evaluation, comparison in words. The procedure: Species and strain: Male SD rats of SPF. Source: Sino-British SIPPR/BK Lab Animal Ltd, Shanghai. 3 rats were orally gavage administrated with given compounds (Formulation: 5% DMSO+10% Solutol+85% Saline). The blood samples were taken via submandibular vein or other suitable vein at timepoints 0.25 h, 0.5 h, 1 h, 2 h, 4 h, 6 h, 8 h and 24 h after oral gavage administration, 0.15 mL/time point. Blood samples were placed in tubes containing K2-EDTA and stored on ice until centrifuged. The blood samples were centrifuged at 6800 g for 6 minutes at 2-8° C. within 1 h after collected and stored frozen at approximately −80° C. An aliquot of 30 μL plasma samples were protein precipitated with 300 μL MeOH in which contains 100 ng/mL Verapamil (IS). The mixture was vortexed for 1 min and centrifuged at 18000 g for 7 min. Transfer 300 μL supernatant to 96 well plates. An aliquot of 8 μL supernatant was injected for LC-MS/MS analysis by LC-MS/MS-12 (TQ5500) instrument. The analytical results were confirmed using quality control samples for intra-assay variation. The accuracy of >66.7% of the quality control samples should be between 80-120% of the known value(s). Standard set of parameters including Area Under the Curve (AUC(0-t) and AUC(0-∞)), elimination half-live (T1/2), maximum plasma concentration (Cmax), will be calculated using noncompartmental analysis modules in FDA certified pharmacokinetic program Phoenix WinNonlin 7.0 (Pharsight, USA).

In a further series the test system is Human Pan T cells. Description: IL-2 Release Detection Assay. It is filed as cell-based. To be noted: T-cell; for EC50: IL-2 in supernatant by ELISA, anti-CD3 pre-coated plate, 24 hours; for maximal fold induction: Top activation/DMSO control; for activity at 0.1 µM: curve value at 100 nM/DMSO control*100%, read-out: Activation % at 100 nM. The protocol: Isolate Human Pan T cells from PBMC according to T cell isolation kit (Stemcell, 17951). The suspend T cell in RPMI 1640 medium containing 10% FBS, 1% PS and 55 µM β-Mer at a density of 3*10^6 cells/well/3 ml are seeded into 6 well plate, recovered overnight at 37° C.&[…]. Harvest overnight recovered T cells are suspended in fresh RPMI1640 medium containing 10% FBS, 1% PS and 55 μM f-Mer, seeded 1*10^5/well/200 μl cells into the anti-CD3 pre-coated 96 well plate. Add dilutions of compounds into the cells and incubate at 37° C.&5% CO2 for 24 hours. IL-2 in cell supernatant was detected by ELISA Kit (R&D, DY202). Fit the compound EC50 in non-linear regression equation: Y=Bottom+(Top−Bottom)/(1+10^((Log EC50−X)*HillSlope)), X=compound concentration, Y=Activation %. Top and Bottom: Plateaus in same units as Y. Log EC50: same log units as X. Activation fold: Top activation/DMSO control. Activation % at 100 nM: Activation of non-linear regression equation curve at the concentration of 100 nM/DMSO control*100%.
A general note: ELISA stands for enzyme-linked immunosorbent assay.

For another series, the target named is T1, DGKA (Homo sapiens, UniProt P23743).
T1 construct: purchased SignalChem D21-10BG
T1 sequence (P23743 whole entry): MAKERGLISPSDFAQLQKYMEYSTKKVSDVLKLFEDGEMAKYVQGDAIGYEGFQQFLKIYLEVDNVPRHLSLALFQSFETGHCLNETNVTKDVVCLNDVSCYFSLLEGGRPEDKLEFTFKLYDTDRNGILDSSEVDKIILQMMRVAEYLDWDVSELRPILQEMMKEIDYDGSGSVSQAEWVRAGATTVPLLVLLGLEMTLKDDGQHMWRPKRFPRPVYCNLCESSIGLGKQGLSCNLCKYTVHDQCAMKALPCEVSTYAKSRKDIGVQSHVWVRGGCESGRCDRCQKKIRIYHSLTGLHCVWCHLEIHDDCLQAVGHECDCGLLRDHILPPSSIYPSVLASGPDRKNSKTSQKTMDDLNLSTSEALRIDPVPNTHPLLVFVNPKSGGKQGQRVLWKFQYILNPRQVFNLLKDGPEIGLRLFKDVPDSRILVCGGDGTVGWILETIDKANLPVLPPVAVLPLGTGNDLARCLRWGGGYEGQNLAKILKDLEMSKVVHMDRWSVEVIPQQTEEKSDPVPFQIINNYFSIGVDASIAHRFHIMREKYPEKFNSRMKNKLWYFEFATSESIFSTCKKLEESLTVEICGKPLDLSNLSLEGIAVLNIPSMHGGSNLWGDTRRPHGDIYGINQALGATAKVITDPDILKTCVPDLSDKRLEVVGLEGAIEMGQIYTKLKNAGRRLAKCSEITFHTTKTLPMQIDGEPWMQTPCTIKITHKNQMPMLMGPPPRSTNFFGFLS
The experiment in a line: DGKA Inhibition ADP-Glo Assay. Conditions: 40 μM ATP. The class given is biochemical. The protocol: The DGKA inhibition reactions were performed using ADP-Glo assay. The reactions were carried out in 50 mM HEPES, 100 mM NaCl, 10 mM MgCl2, 1 mM CaCl2, 0.005% TritonX-100 and 1 mM DTT as working solution (pH=7.5). 30 nL DMSO solution of each test compound (Top concentration […] with 10 point, 4-fold dilution series for each compound) were transferred to 384 well plate by Echo and 5 μL DGKA (SignalChem, D21-10BG) enzyme working solution at 2× final reaction concentration was added to each well. After incubated at 25° C. for 15 minutes, 5 μL substrate working solution contain 40 μM ATP (Promega, V915B) and 200 µM DLG (SignalChem, D430-59) were added to initiate reaction. After enzymatic reaction at 25° C. for 60 min, ADP Glo assay reagents (Promega, V9102) were added and luminescence was recorded using an EnVision following the instruction of manual. […] The IC50 value was calculated via a regression analysis of the inhibition rate.
On the technique in general: ADP-Glo first removes unused ATP, then detects ADP through luciferase.

One may read the AUC(0-inf) as total exposure, with the tail of the curve extrapolated. Lower therefore signals less exposure. Usually AUC(0-t) stands for the area under the concentration-time curve up to a stated or last time point. The low end stands for low exposure, the high end for high exposure. What is called Cmax is the maximum level reached in the sampled fluid or tissue. In general, half-life refers to the time in which the quantity being followed falls by half. High values mean slow loss, low ones fast loss. Usually EC50 stands for the concentration that produces a half-maximal response. A low value points to an effect from little substance. One may read the maximal fold induction as the signal under treatment as a multiple of the control signal. What is called IC50 is the concentration that gives 50% inhibition. Read a high IC50 as weaker potency.

In series [1], `Cn1c(=O)nc(N2CCOCc3c(C#CC4(C(F)(F)F)CC4)cccc32)c2cc(Cl)ccc21` [Example 5, 6-chloro-1-methyl-4-(6-((1-(trifluoromethyl)cyclopropyl)ethynyl)-2,3-dihydrobenzo[e][1,4]oxazepin-1(5H)-yl)quinazolin-2(1H)-one] gave an AUC(0-inf) of 7110 ng·h/mL, an AUC(0-t) of 6660 ng·h/mL, a peak concentration (Cmax) of 985 ng/mL and a half-life of 122 min. Besides, in series [2], the area under the curve AUC(0-inf) is 3760 ng·h/mL, the exposure AUC(0-t) amounted to 3470 ng·h/mL, the peak concentration (Cmax) turned out to be 292 ng/mL and the half-life is 379 min. In addition, in the series with Human Pan T cells, the EC50 was 444 nM, the maximal fold induction came to 7.7 and the activity at 0.1 µM is 395%. This molecule also displayed an IC50 against DGKA of under 1 nM.
On to `Cn1c(=O)nc(N2CCOCc3c(C#CC4(C(F)(F)F)CC4)cccc32)c2cc(C#N)c(OC3CCOC3)cc21` (stereo not drawn) [Example 12, 1-methyl-2-oxo-7-((tetrahydrofuran-3-yl)oxy)-4-(6-((1-(trifluoromethyl)cyclopropyl)ethynyl)-2,3-dihydrobenzo[e][1,4]oxazepin-1(5H)-yl)-1,2-dihydroquinazoline-6-carbonitrile], for which, in series [1], the AUC(0-inf) was 7870 ng·h/mL, the AUC(0-t) turned out to be 7740 ng·h/mL, the Cmax is 1690 ng/mL and the half-life is 61.8 min. For the same molecule, in the series on Human Pan T cells, the EC50 came to 1080 nM, the maximal fold induction came out at 14.2 and the activity at 0.1 µM worked out at 311%. Besides, at DGKA, the IC50 was under 1 nM.
Take `Cn1c(=O)nc(N2CCOCc3c(C#CC4(C(F)(F)F)CC4)cccc32)c2cc(Cl)c(OCCO)cc21` [Example 13, 6-chloro-7-(2-hydroxyethoxy)-1-methyl-4-(6-((1-(trifluoromethyl)cyclopropyl)ethynyl)-2,3-dihydrobenzo[e][1,4]oxazepin-1(5H)-yl)quinazolin-2(1H)-one]: in series [1], the area under the curve AUC(0-inf) turned out to be 28400 ng·h/mL, the exposure AUC(0-t) was determined as 26200 ng·h/mL, the Cmax came out at 2400 ng/mL and the half-life was 368 min. The “T1/2, Cmax and AUC compared with compound” value in series [1] was “longer T1/2, much higher Cmax and AUC”. For the same molecule, in series [2], the AUC(0-t) is 7520 ng·h/mL; the Cmax worked out at 455 ng/mL; the “T1/2, Cmax and AUC compared with compound” value was “longer T1/2, much higher Cmax and AUC”. Besides, in the series on Human Pan T cells, the half-maximal effective concentration (EC50) turned out to be 131 nM and the maximal fold induction was found to be 22.5. In addition, the IC50 against DGKA was under 1 nM.
In series [1], `Cn1c(=O)nc(N2CCOCc3c(C#CC4CC4)cccc32)c2cc(Cl)c(OCCO)cc21` [Example 41, 6-chloro-4-(6-(cyclopropylethynyl)-2,3-dihydrobenzo[e][1,4]oxazepin-1(5H)-yl)-7-(2-hydroxyethoxy)-1-methylquinazolin-2(1H)-one] had a total exposure AUC(0-inf) of 15500 ng·h/mL, an AUC(0-t) of 15300 ng·h/mL, a Cmax of 2230 ng/mL and a half-life of 197 min. Also, the “T1/2, Cmax and AUC compared with compound” value in series [1] was “longer T1/2, much higher Cmax and AUC”. In series [2], this molecule had an AUC(0-inf) of 12000 ng·h/mL, an area under the curve AUC(0-t) of 10200 ng·h/mL, a Cmax of 724 ng/mL and a half-life of 485 min. Also, the “T1/2, Cmax and AUC compared with compound” value in series [2] is “longer T1/2, much higher Cmax and AUC”. In addition, in the series with Human Pan T cells, it took 608 nM to reach a half-maximal effect (EC50), the maximal fold induction turned out to be 26.3 and the activity at 0.1 µM turned out to be 510%. This molecule also gave a half-maximal inhibitory concentration (IC50) against DGKA of under 1 nM.
